Data on 28 molecules can be found in patent US20220348558A1, “INHIBITORS OF ENCEPHALITIC ALPHAVIRUSES” (priority 2019, published 2022).

Assay [1] has as its system VEEV TC83. The assay is described as follows: microbe, parasite or virus in culture. The assay is classed as cell-based. Particulars: Venezuelan equine encephalitis virus, Vero 76, 48 h, read-out: VEEV TC83 EC50 nM.
In assay [2] the test system is WEEV California. The assay is described as follows: microbe, parasite or virus in culture. It is filed as cell-based. To be noted: Western equine encephalitis virus, Vero 76, 48 h, read-out: WEEV California EC50 nM.

What is called EC50 is the concentration needed to bring the measured effect to its halfway point. With `COc1c(F)cc(-n2c(C3C[C@H](F)CN3)nc3c(-c4cc(C)nc(C)c4)cc(C#N)cc3c2=O)cc1F` (stereo partly drawn) [Example 160, 3-(3,5-Difluoro-4-methoxyphenyl)-8-(2,6-dimethylpyridin-4-yl)-2-((4S)-4-fluoropyrrolidin-2-yl)-4-oxo-3,4-dihydroquinazoline-6-carbonitrile], the concentration for a half-maximal effect (EC50) in assay [1] and in assay [2] was 51 to 150 nM in each case.
Consider `COc1c(F)cc(-n2c(C3CCCN3)nc3c(-c4ccnc(C)c4)cc(C#N)cc3c2=O)cc1F` (centres unmarked) [Example 155, 3-(3,5-Difluoro-4-methoxyphenyl)-8-(2-methylpyridin-4-yl)-4-oxo-2-(pyrrolidin-2-yl)-3,4-dihydroquinazoline-6-carbonitrile], for which the 50% effective concentration (EC50) in assay [1] and in assay [2] was 1 to 50 nM in each case.
For the molecule `COc1ccc(-n2c([C@@H]3C[C@@H]4CCCC[C@@H]4N3)nc3c(-c4ccc(C)nc4)cc(C#N)cc3c2=O)cc1F` [Example 139, 3-(3-fluoro-4-methoxyphenyl)-8-(6-methylpyridin-3-yl)-2-((2S,3aS,7aS)-octahydro-1H-indol-2-yl)-4-oxo-3,4-dihydroquinazoline-6-carbonitrile], the EC50 in assay [1] fell in the range of 1 to 50 nM; in assay [2] it was 51 to 150 nM.
Regarding `COc1ccc(-n2c([C@H]3CCCN3)nc3c([N+](=O)[O-])cccc3c2=O)cc1` [Example 47, (R)-3-(4-methoxyphenyl)-8-nitro-2-(pyrrolidin-2-yl)quinazolin-4 (3H)-one], the EC50 in assay [1] and in assay [2] was greater than 1000 nM in each case.
Turning to `COc1ccc(-n2c(-c3ncco3)nc3c(-c4ccc(C)nc4)cc(C#N)cc3c2=O)cc1F` [Example 202, 3-(3-fluoro-4-methoxyphenyl)-8-(6-methylpyridin-3-yl)-2-(oxazol-2-yl)-4-oxo-3,4-dihydroquinazoline-6-carbonitrile], the EC50 in assay [1] and in assay [2] was greater than 1000 nM in each case.
With `COc1ccc(-n2c([C@H]3CC(F)(F)CN3)nc3c(-c4ccc(C)nc4)cc(C#N)cc3c2=O)cc1F` [Example 184, (R)-2-(4,4-difluoropyrrolidin-2-yl)-3-(3-fluoro-4-methoxyphenyl)-8-(6-methylpyridin-3-yl)-4-oxo-3,4-dihydroquinazoline-6-carbonitrile], the EC50 in assay [1] and in assay [2] was 51 to 150 nM in each case.
Turning to `COc1ccc(-c2cc(C#N)cc3c(=O)n(-c4ccc(OC)c(F)c4)c(C4CCCN4)nc23)cc1` (centres unmarked) [Example 147, 3-(3-Fluoro-4-methoxyphenyl)-8-(4-methoxyphenyl)-4-oxo-2-(pyrrolidin-2-yl)-3,4-dihydroquinazoline-6-carbonitrile], the EC50 in assay [1] and in assay [2] was 1 to 50 nM throughout.
As to `COc1ccc(-n2c(-c3cncn3C)nc3c(-c4ccc(C)nc4)cc(C#N)cc3c2=O)cc1F` [Example 201, 3-(3-fluoro-4-methoxyphenyl)-2-(1-methyl-1H-imidazol-5-yl)-8-(6-methylpyridin-3-yl)-4-oxo-3,4-dihydroquinazoline-6-carbonitrile], the EC50 in assay [1] and in assay [2] was greater than 1000 nM throughout.
In the case of `COc1ccc(-n2c(C3CCCN3)nc3c(-c4cnc(C)c(C)c4)cc(C#N)cc3c2=O)cc1F` (centres unmarked) [Example 137, 8-(5,6-dimethylpyridin-3-yl)-3-(3-fluoro-4-methoxyphenyl)-4-oxo-2-(pyrrolidin-2-yl)-3,4-dihydroquinazoline-6-carbonitrile], the 50% effective concentration (EC50) in assay [1] and in assay [2] was 1 to 50 nM in each case.
As for `COc1ccc(-n2c([C@H]3CCCN3)nc3c(-c4ccncc4)cc(C#N)cc3c2=O)cc1F` [Example 109, (R)-3-(3-fluoro-4-methoxyphenyl)-4-oxo-8-(pyridin-4-yl)-2-(pyrrolidin-2-yl)-3,4-dihydroquinazoline-6-carbonitrile], the EC50 in assay [1] and in assay [2] was 1 to 50 nM throughout.
For `COc1ccc(-n2c(C3CCCN3)nc3c(-c4cnc(OC)c(OC)c4)cc(C#N)cc3c2=O)cc1F` (centres unmarked) [Example 135, 8-(5,6-dimethoxypyridin-3-yl)-3-(3-fluoro-4-methoxyphenyl)-4-oxo-2-(pyrrolidin-2-yl)-3,4-dihydroquinazoline-6-carbonitrile], the concentration for a half-maximal effect (EC50) in assay [1] and in assay [2] was 1 to 50 nM throughout.
For `COc1ccc(-n2c(-c3ccon3)nc3c(-c4ccc(C)nc4)cc(C#N)cc3c2=O)cc1F` [Example 199, 3-(3-fluoro-4-methoxyphenyl)-2-(isoxazol-3-yl)-8-(6-methylpyridin-3-yl)-4-oxo-3,4-dihydroquinazoline-6-carbonitrile], the concentration giving a half-maximal response (EC50) in assay [1] is 501 to 1000 nM; in assay [2], greater than 1000 nM.
For `O=c1c2cc([N+](=O)[O-])ccc2nc([C@@H]2CCCN2)n1-c1ccc(OC(F)(F)F)cc1` [Example 46, (S)-6-nitro-2-(pyrrolidin-2-yl)-3-(4-(trifluoromethoxy)phenyl)quinazolin-4 (3H)-one], the EC50 in assay [1] and in assay [2] was greater than 1000 nM each time.
Regarding `COc1ccc(-n2c([C@H]3CCCN3)nc3cccc([N+](=O)[O-])c3c2=O)cc1` [Example 49, (R)-3-(4-methoxyphenyl)-5-nitro-2-(pyrrolidin-2-yl)quinazolin-4 (3H)-one], the 50% effective concentration (EC50) in assay [1] and in assay [2] was greater than 1000 nM each time.
As to `Cc1ccc(-c2cc(C#N)cc3c(=O)n(-c4ccc(O)c(F)c4)c([C@H]4CCCN4)nc23)cn1` [Example 167, (R)-3-(3-fluoro-4-hydroxyphenyl)-8-(6-methylpyridin-3-yl)-4-oxo-2-(pyrrolidin-2-yl)-3,4-dihydroquinazoline-6-carbonitrile], the EC50 was 51 to 150 nM in assay [1] and 151 to 500 nM in assay [2].
The corresponding values for `[N-]=[N+]=Nc1cccc(-n2c([C@H]3CCCN3)nc3ccc([N+](=O)[O-])cc3c2=O)c1` [Example 17, (R)-3-(3-azidophenyl)-6-nitro-2-(pyrrolidin-2-yl) quinazolin-4 (3H)-one] are 151 to 500 nM and greater than 1000 nM.
Consider `COc1c(F)cc(-n2c(C3CCNC3)nc3c(-c4ccc(C)nc4)cc(C#N)cc3c2=O)cc1F` (centres unmarked) [Example 188, 3-(3,5-difluoro-4-methoxyphenyl)-8-(6-methylpyridin-3-yl)-4-oxo-2-(pyrrolidin-3-yl)-3,4-dihydroquinazoline-6-carbonitrile], for which the EC50 in assay [1] and in assay [2] was 1 to 50 nM each time.
Consider `COc1ccc(-n2c([C@H]3CCCN3)nc3c(C)cc(C#N)cc3c2=O)cc1` [Example 50, (R)-3-(4-methoxyphenyl)-8-methyl-4-oxo-2-(pyrrolidin-2-yl)-3,4-dihydroquinazoline-6-carbonitrile], for which the concentration giving a half-maximal response (EC50) in assay [1] and in assay [2] was 1 to 50 nM in each case.
With `COc1ccc(-n2c(C3CCCN3)nc3c(-c4ccc(N(C)C)nc4)cc(C#N)cc3c2=O)cc1F` (centres unmarked) [Example 130, 8-(6-(dimethylamino)pyridin-3-yl)-3-(3-fluoro-4-methoxyphenyl)-4-oxo-2-(pyrrolidin-2-yl)-3,4-dihydroquinazoline-6-carbonitrile], the 50% effective concentration (EC50) in assay [1] and in assay [2] was 1 to 50 nM in each case.
In the case of `COc1ccc(-n2c([C@H]3CCCCN3)nc3ccc([N+](=O)[O-])cc3c2=O)cc1` [Example 33, (R)-3-(4-methoxyphenyl)-6-nitro-2-(piperidin-2-yl)quinazolin-4 (3H)-one], the EC50 in assay [1] and in assay [2] was 151 to 500 nM throughout.
As to `COc1ccc(-n2c([C@@H]3CCCN3)nc3ccc(C#N)cc3c2=O)cc1` [Example 15, (S)-3-(4-methoxyphenyl)-4-oxo-2-(pyrrolidin-2-yl)-3,4-dihydroquinazoline-6-carbonitrile], the EC50 in assay [1] fell in the range of 51 to 150 nM; in assay [2] it was 501 to 1000 nM.
As to `COc1ccc(-n2c([C@H]3CCCN3)nc3c(C(F)(F)F)cc(C#N)cc3c2=O)cc1` [Example 74, (R)-3-(4-methoxyphenyl)-4-oxo-2-(pyrrolidin-2-yl)-8-(trifluoromethyl)-3,4-dihydroquinazoline-6-carbonitrile], the concentration for a half-maximal effect (EC50) in assay [1] and in assay [2] was 1 to 50 nM throughout.
For `COc1ccc(-n2c([C@@H]3C[C@@H](F)CN3)nc3c(C)cc([N+](=O)[O-])cc3c2=O)cc1F` [Example 64, 2-((2S,4R)-4-fluoropyrrolidin-2-yl)-3-(3-fluoro-4-methoxyphenyl)-8-methyl-6-nitroquin-azolin-4 (3H)-one], the EC50 in assay [1] and in assay [2] was greater than 1000 nM in each case.
With `COc1ccc(-n2c([C@@H]3CC(=O)CN3)nc3c(-c4ccc(C)nc4)cc(C#N)cc3c2=O)cc1F` [Example 185, (S)-3-(3-fluoro-4-methoxyphenyl)-8-(6-methylpyridin-3-yl)-4-oxo-2-(4-oxopyrrolidin-2-yl)-3,4-dihydroquinazoline-6-carbonitrile], the half-maximal effective concentration (EC50) in assay [1] is 151 to 500 nM; in assay [2] it was greater than 1000 nM.
As for `O=c1c2cc([N+](=O)[O-])ccc2nc([C@H]2CCCN2)n1-c1cccc(OC(F)(F)F)c1` [Example 45, (R)-6-nitro-2-(pyrrolidin-2-yl)-3-(3-(trifluoromethoxy)phenyl)quinazolin-4 (3H)-one], the EC50 in assay [1] and in assay [2] was greater than 1000 nM throughout.
As to `COc1ccc(-n2c([C@H]3C[C@H](F)CN3)nc3c(C)cc(C#N)cc3c2=O)cc1` [Example 53, 2-((2R,4S)-4-fluoropyrrolidin-2-yl)-3-(4-methoxyphenyl)-8-methyl-4-oxo-3,4-dihydroquinazoline-6-carbonitrile], the EC50 in assay [1] and in assay [2] was 151 to 500 nM each time.
As to `COc1ccc(-n2c(-c3cocn3)nc3c(-c4ccc(C)nc4)cc(C#N)cc3c2=O)cc1F` [Example 197, 3-(3-fluoro-4-methoxyphenyl)-8-(6-methylpyridin-3-yl)-2-(oxazol-4-yl)-4-oxo-3,4-dihydroquinazoline-6-carbonitrile], the EC50 in assay [1] is 501 to 1000 nM; in assay [2], greater than 1000 nM.
As to `COc1ccc(-n2c(C3CCCN3)nc3c(Cc4ccc(C)nc4)cc(C#N)cc3c2=O)cc1F` (centres unmarked) [Example 187, 3-(3-fluoro-4-methoxyphenyl)-8-((6-methylpyridin-3-yl)methyl)-4-oxo-2-(pyrrolidin-2-yl)-3,4-dihydroquinazoline-6-carbonitrile], the EC50 in assay [1] was 51 to 150 nM; in assay [2] it was 151 to 500 nM.
